Measured values reported in patent US9340590B2 (priority 2011, dated 2016).
Where two headings read alike, the source gives them in different places. Positions of bridges follow the written chain, without caps; N, C: chain ends. Non-standard residues stand in square brackets, D forms with d. Residues, ends and D or L forms follow the SMILES beside them. 2Pal = N[C@@H](Cc1ccccn1)C(=O)O

Columns and labels:
Assay in all cases: cell-based
hNav1.5 = hNav1.5 (Homo sapiens, UniProt Q14524); settings: IonWorks Quattro, read-out: IWQ Use Nav1.5
hNav1.7 = hNav1.7 (Homo sapiens, UniProt Q15858); type: cell-based; settings: IonWorks Quattro, read-out: IWQ Use Nav1.7
hNav1.3 = hNav1.3 (Homo sapiens, UniProt Q9NY46); settings: IonWorks Quattro, read-out: IWQ Use Nav1.3
[1] = clamped to −110 mV, depolarized to −10 mV, 5 min after compound, n=2

hNav1.5, sequence (Q14524 whole entry, looked up): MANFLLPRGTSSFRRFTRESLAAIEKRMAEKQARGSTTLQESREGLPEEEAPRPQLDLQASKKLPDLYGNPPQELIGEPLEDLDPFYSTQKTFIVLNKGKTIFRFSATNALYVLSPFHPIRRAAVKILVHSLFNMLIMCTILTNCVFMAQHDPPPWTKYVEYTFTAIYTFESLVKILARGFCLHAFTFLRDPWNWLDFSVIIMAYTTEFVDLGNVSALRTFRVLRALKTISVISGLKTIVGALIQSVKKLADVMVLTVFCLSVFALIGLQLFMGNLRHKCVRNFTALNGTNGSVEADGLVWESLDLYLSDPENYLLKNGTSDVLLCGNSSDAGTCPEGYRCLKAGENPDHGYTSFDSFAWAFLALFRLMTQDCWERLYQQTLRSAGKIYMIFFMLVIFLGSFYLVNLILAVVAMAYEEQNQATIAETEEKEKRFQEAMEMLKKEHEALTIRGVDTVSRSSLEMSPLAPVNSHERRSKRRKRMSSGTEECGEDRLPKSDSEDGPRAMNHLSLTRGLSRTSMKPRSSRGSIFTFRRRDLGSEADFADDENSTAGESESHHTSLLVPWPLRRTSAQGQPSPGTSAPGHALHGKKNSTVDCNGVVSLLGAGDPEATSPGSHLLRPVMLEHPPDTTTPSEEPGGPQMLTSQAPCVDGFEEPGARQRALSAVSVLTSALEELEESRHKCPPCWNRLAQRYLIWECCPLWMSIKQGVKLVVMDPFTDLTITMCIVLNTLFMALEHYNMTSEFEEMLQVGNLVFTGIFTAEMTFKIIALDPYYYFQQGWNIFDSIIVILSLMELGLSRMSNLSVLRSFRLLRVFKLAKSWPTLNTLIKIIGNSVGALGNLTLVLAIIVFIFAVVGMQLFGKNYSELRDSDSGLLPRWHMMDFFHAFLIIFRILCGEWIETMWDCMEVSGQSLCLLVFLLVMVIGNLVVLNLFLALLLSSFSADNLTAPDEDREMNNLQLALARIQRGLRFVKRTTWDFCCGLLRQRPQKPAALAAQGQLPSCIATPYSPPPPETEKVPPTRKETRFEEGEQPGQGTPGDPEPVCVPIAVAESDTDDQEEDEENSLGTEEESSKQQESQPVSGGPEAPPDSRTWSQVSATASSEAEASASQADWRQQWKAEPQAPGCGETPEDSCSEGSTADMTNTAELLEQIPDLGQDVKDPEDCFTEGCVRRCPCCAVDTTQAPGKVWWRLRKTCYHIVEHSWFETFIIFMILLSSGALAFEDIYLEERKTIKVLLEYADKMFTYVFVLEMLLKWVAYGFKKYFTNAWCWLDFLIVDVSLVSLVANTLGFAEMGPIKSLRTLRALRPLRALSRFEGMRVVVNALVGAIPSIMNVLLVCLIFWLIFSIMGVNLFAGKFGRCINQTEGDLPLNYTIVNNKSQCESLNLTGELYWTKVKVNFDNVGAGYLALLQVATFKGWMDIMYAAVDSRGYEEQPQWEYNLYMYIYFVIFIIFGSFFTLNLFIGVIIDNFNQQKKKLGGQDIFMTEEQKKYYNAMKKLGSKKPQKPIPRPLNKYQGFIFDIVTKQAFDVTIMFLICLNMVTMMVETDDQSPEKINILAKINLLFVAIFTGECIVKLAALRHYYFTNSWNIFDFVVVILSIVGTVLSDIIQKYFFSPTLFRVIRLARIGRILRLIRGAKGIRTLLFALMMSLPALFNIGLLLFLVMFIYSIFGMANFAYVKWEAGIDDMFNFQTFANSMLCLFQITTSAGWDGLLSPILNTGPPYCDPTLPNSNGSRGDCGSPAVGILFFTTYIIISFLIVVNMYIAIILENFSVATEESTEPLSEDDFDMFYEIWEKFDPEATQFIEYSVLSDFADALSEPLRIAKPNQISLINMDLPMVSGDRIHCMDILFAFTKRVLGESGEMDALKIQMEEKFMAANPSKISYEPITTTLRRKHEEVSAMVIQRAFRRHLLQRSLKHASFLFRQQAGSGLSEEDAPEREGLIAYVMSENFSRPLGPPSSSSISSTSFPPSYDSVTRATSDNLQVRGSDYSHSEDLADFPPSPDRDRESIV
hNav1.3, sequence (Q9NY46 whole entry, looked up): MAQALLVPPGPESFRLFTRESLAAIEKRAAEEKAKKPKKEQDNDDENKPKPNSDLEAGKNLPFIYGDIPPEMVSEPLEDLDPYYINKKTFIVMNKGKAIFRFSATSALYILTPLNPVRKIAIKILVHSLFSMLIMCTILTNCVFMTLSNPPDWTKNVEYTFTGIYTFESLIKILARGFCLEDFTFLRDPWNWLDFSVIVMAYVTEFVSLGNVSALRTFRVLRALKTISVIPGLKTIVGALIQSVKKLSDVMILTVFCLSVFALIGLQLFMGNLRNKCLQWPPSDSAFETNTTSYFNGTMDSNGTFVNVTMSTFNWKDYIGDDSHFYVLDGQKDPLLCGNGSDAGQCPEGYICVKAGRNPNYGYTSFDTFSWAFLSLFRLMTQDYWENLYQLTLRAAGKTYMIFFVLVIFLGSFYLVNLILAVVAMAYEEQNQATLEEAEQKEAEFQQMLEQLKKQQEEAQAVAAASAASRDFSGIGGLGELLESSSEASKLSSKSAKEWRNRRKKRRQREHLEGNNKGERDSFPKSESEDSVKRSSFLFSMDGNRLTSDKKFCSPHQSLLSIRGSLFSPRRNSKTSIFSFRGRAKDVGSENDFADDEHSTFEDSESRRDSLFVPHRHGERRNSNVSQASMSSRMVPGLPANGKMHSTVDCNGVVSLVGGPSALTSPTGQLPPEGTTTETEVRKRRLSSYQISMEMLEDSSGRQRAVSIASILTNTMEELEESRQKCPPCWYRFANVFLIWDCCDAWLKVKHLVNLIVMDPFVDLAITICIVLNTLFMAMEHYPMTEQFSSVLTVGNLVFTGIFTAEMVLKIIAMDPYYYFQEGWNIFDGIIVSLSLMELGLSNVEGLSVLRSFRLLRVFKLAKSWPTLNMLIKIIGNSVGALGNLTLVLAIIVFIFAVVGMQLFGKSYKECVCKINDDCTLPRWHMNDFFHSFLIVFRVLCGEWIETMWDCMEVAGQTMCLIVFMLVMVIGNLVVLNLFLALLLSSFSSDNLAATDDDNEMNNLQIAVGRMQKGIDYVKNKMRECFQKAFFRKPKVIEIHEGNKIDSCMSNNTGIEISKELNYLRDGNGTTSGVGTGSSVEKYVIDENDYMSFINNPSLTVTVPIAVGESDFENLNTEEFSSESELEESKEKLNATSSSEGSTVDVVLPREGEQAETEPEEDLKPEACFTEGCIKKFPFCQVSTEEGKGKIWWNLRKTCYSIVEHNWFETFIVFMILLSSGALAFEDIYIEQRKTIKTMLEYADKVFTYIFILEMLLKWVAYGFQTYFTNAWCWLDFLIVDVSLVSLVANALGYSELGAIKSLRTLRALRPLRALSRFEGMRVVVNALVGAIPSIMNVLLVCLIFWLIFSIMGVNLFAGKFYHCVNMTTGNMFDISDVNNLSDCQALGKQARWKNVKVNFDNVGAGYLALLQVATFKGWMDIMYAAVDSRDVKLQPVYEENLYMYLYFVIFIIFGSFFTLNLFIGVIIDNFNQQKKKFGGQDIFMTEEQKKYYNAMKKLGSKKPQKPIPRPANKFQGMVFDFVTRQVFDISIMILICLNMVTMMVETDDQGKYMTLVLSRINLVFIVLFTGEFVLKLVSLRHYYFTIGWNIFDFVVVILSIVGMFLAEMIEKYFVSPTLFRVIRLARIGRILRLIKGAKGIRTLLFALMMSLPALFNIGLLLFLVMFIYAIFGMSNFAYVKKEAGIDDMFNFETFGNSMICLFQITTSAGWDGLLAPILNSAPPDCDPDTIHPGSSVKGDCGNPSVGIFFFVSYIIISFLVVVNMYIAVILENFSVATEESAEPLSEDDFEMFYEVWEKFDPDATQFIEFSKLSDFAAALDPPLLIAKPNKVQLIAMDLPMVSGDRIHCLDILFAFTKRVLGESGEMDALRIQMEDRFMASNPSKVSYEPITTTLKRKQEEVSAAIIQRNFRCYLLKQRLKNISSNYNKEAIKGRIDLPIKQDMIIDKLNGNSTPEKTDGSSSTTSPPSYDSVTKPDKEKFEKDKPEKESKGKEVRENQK

`CC[C@H](C)[C@@H]1NC(=O)[C@@H]2CSSC[C@@H]3NC(=O)[C@H](C(C)C)NC(=O)[C@H](CC(C)C)NC(=O)[C@H](CC(N)=O)NC(=O)[C@@H]4CCCN4C(=O)[C@H](CCCNC(=N)N)NC(=O)[C@H](CSSC[C@H](NC(=O)[C@@H](N)CC(=O)O)C(=O)N[C@@H](CC(C)C)C(=O)NCC(=O)N[C@@H](C)C(=O)N[C@@H](CC(C)C)C(=O)N[C@@H](CCCNC(=N)N)C(=O)N[C@@H](CCCCN)C(=O)N2)NC(=O)[C@H](CSSC[C@@H](C(=O)N[C@@H](CCCCN)C(=O)N[C@@H](Cc2ccc(O)cc2)C(=O)N[C@H](C(=O)N[C@@H](Cc2ccccc2)C(=O)O)C(C)C)NC(=O)[C@H](Cc2c[nH]c4ccccc24)NC(=O)[C@H](CCSC)NC(=O)[C@H](Cc2c[nH]cn2)NC(=O)[C@H]([C@@H](C)O)NC(=O)[C@H](CCCNC(=N)N)NC(=O)[C@H](CO)NC3=O)NC(=O)[C@H](CCCCN)NC(=O)[C@H](CC(=O)O)NC(=O)[C@H](CC(N)=O)NC(=O)[C@H](CC(=O)O)NC(=O)[C@@H]2CCCN2C1=O` [compound 857] (H-DCLGALRKCIPDNDKCCRPNLVCSRTHMWCKYVF-OH; disulfide 2-17, 9-23, 16-30) was tested, and the IC50 (hNav1.5; use-dependent block, hNav1.5) was greater than 5 µM, the IC50 (hNav1.7; use-dependent block, hNav1.7) was greater than 5 µM and the IC50 (hNav1.3; use-dependent block, hNav1.3) was greater than 5 µM.
Work on `CC[C@H](C)[C@@H]1NC(=O)[C@@H]2CSSC[C@@H]3NC(=O)[C@H](C(C)C)NC(=O)[C@H](CC(C)C)NC(=O)[C@H](CC(N)=O)NC(=O)[C@@H]4CCCN4C(=O)[C@H](CCCNC(=N)N)NC(=O)[C@H](CSSC[C@H](NC(=O)[C@@H](N)CC(=O)O)C(=O)N[C@@H](CC(C)C)C(=O)NCC(=O)N[C@@H](Cc4ccccc4)C(=O)N[C@@H](CCSC)C(=O)N[C@@H](CCCNC(=N)N)C(=O)N[C@@H](CCCCN)C(=O)N2)NC(=O)[C@H](CSSC[C@@H](C(=O)N[C@@H](CCCCN)C(=O)N[C@@H](Cc2ccc(O)cc2)C(=O)N[C@H](C(=O)N[C@@H](Cc2ccccn2)C(N)=O)C(C)C)NC(=O)[C@H](Cc2c[nH]c4ccccc24)NC(=O)[C@H](CCCCN)NC(=O)[C@H](Cc2c[nH]cn2)NC(=O)[C@H]([C@@H](C)O)NC(=O)[C@H](CCCNC(=N)N)NC(=O)[C@H](CO)NC3=O)NC(=O)[C@H](CCCCN)NC(=O)[C@H](CC(=O)O)NC(=O)[C@H](CC(N)=O)NC(=O)[C@H](CC(=O)O)NC(=O)[C@@H]2CCCN2C1=O` [compound 411] (H-DCLGFMRKCIPDNDKCCRPNLVCSRTHKWCKYV[2Pal]-NH2; disulfide 2-17, 9-23, 16-30) yielded an IC50 (hNav1.5; use-dependent, […]) of 8.16 µM, an IC50 (hNav1.7; use-dependent, […]) of 5.82 µM and an IC50 (hNav1.3; use-dependent, […]) of 4.83 µM.
Molecule `CC[C@H](C)[C@@H]1NC(=O)[C@@H]2CSSC[C@@H]3NC(=O)[C@H](C(C)C)NC(=O)[C@H](CC(C)C)NC(=O)[C@H](CC(N)=O)NC(=O)[C@@H]4CCCN4C(=O)[C@H](CCCNC(=N)N)NC(=O)[C@H](CSSC[C@H](NC(=O)[C@@H](N)CC(=O)O)C(=O)N[C@@H](CC(C)C)C(=O)NCC(=O)N[C@@H](Cc4ccccc4)C(=O)N[C@@H](CCSC)C(=O)N[C@@H](CCCNC(=N)N)C(=O)N[C@@H](CCCCN)C(=O)N2)NC(=O)[C@H](CSSC[C@@H](C(=O)N[C@@H](CCCCN)C(=O)N[C@@H](Cc2ccc(O)cc2)C(=O)N[C@H](C(=O)N[C@@H](Cc2ccccc2)C(N)=O)C(C)C)NC(=O)[C@H](Cc2c[nH]c4ccccc24)NC(=O)[C@H](CCCCN)NC(=O)[C@H](Cc2c[nH]cn2)NC(=O)[C@H]([C@@H](C)O)NC(=O)[C@H](CCCNC(=N)N)NC(=O)[C@H](CO)NC3=O)NC(=O)[C@H](CCCCN)NC(=O)[C@H](CC(=O)O)NC(=O)[C@H](CC(N)=O)NC(=O)[C@H](CC(C)C)NC(=O)[C@@H]2CCCN2C1=O` [compound 193] (H-DCLGFMRKCIPLNDKCCRPNLVCSRTHKWCKYVF-NH2; disulfide 2-17, 9-23, 16-30) has an IC50 (hNav1.5; Use) of 6.83 µM, an IC50 (hNav1.7; Use) of 0.08 µM and an IC50 (hNav1.3; Use) of 0.071 µM.
`CC[C@H](C)[C@@H]1NC(=O)[C@@H]2CSSC[C@@H]3NC(=O)[C@H](C(C)C)NC(=O)[C@H](CC(C)C)NC(=O)[C@H](CC(N)=O)NC(=O)[C@@H]4CCCN4C(=O)[C@H](CCCNC(=N)N)NC(=O)[C@H](CSSC[C@H](NC(=O)[C@@H](N)CC(=O)O)C(=O)N[C@@H](CC(C)C)C(=O)NCC(=O)N[C@@H](C)C(=O)N[C@@H](CC(C)C)C(=O)N[C@@H](CCCNC(=N)N)C(=O)N[C@@H](CCCCN)C(=O)N2)NC(=O)[C@H](CSSC[C@@H](C(=O)N[C@@H](CCCCN)C(=O)N[C@@H](Cc2ccc(O)cc2)C(=O)N[C@H](C(=O)N[C@@H](Cc2ccccc2)C(=O)O)C(C)C)NC(=O)[C@H](Cc2c[nH]c4ccccc24)NC(=O)[C@H](CCCNC(=N)N)NC(=O)[C@H](Cc2c[nH]cn2)NC(=O)[C@H]([C@@H](C)O)NC(=O)[C@H](CCCNC(=N)N)NC(=O)[C@H](CO)NC3=O)NC(=O)[C@H](CCCCN)NC(=O)[C@H](CC(=O)O)NC(=O)[C@H](CCCCN)NC(=O)[C@H](CC(=O)O)NC(=O)[C@@H]2CCCN2C1=O` [compound 866] (H-DCLGALRKCIPDKDKCCRPNLVCSRTHRWCKYVF-OH; disulfide 2-17, 9-23, 16-30) gave an IC50 (hNav1.5; use-dependent block, hNav1.5) greater than 5 µM, an IC50 (hNav1.7; use-dependent block, hNav1.7) greater than 5 µM and an IC50 (hNav1.3; use-dependent block, hNav1.3) of 2.3 µM.
`CC[C@H](C)[C@@H]1NC(=O)[C@H](Cc2ccccc2)NC(=O)CNC(=O)[C@H](CC(C)C)NC(=O)[C@@H](NC(=O)[C@@H](N)CC(=O)O)CSSC[C@@H]2NC(=O)[C@@H]3CSSC[C@@H](C(=O)N[C@@H](CCCCN)C(=O)N[C@@H](Cc4ccc(O)cc4)C(=O)N[C@H](C(=O)N[C@@H](Cc4ccccc4)C(N)=O)C(C)C)NC(=O)[C@H](Cc4c[nH]c5ccccc45)NC(=O)[C@H](CCCCN)NC(=O)[C@H](Cc4c[nH]cn4)NC(=O)[C@H]([C@@H](C)O)NC(=O)[C@H](CCCNC(=N)N)NC(=O)[C@H](CO)NC(=O)[C@H](CSSC[C@H](NC(=O)[C@H](CCCCN)NC(=O)[C@H](CCCNC(=N)N)NC1=O)C(=O)N[C@@H]([C@@H](C)CC)C(=O)N1CCC[C@H]1C(=O)N[C@@H](CC(=O)O)C(=O)N[C@@H](CC(N)=O)C(=O)N[C@@H](CC(=O)O)C(=O)N[C@@H](CCCCN)C(=O)N3)NC(=O)[C@H](C(C)C)NC(=O)[C@H](CC(C)C)NC(=O)[C@H](CC(N)=O)NC(=O)[C@@H]1CCCN1C(=O)[C@H](CCCNC(=N)N)NC2=O` [SEQ ID NO: 282] (H-DCLGFIRKCIPDNDKCCRPNLVCSRTHKWCKYVF-NH2; disulfide 2-17, 9-23, 16-30) gave an IC50 (hNav1.5; [1]) of 8.63 µM, an IC50 (hNav1.7; [1]) of 0.07 µM and an IC50 (hNav1.3; [1]) of 0.06 µM.
Molecule `CC[C@H](C)[C@@H]1NC(=O)[C@@H]2CSSC[C@@H]3NC(=O)[C@H](C(C)C)NC(=O)[C@H](CC(C)C)NC(=O)[C@H](CC(N)=O)NC(=O)[C@@H]4CCCN4C(=O)[C@H](CCCNC(=N)N)NC(=O)[C@H](CSSC[C@H](NC(=O)[C@@H](N)CC(=O)O)C(=O)N[C@@H](CC(C)C)C(=O)NCC(=O)N[C@@H](Cc4ccccc4)C(=O)N[C@@H](CCSC)C(=O)N[C@@H](CCCNC(=N)N)C(=O)N[C@@H](CCCCN)C(=O)N2)NC(=O)[C@H](CSSC[C@@H](C(=O)N[C@@H](CCCCN)C(=O)N[C@@H](Cc2ccc(O)cc2)C(=O)N[C@H](C(=O)N[C@@H](Cc2ccccc2)C(N)=O)C(C)C)NC(=O)[C@H](Cc2c[nH]c4ccccc24)NC(=O)[C@H](CCCCN)NC(=O)[C@H](Cc2cnc[nH]2)NC(=O)[C@H]([C@@H](C)O)NC(=O)[C@H](CCCNC(=N)N)NC(=O)[C@H](CO)NC3=O)NC(=O)[C@H](CCCCN)NC(=O)[C@H](CC(=O)O)NC(=O)[C@H](CC(N)=O)NC(=O)[C@H](CC(=O)O)NC(=O)[C@H](Cc2c[nH]c3ccccc23)NC1=O` [SEQ ID NO: 171, [Trp11]GpTx-1] (H-DCLGFMRKCIWDNDKCCRPNLVCSRTHKWCKYVF-NH2; disulfide 2-17, 9-23, 16-30) has an IC50 (hNav1.5; Use) of 9.5 µM, an IC50 (hNav1.7; Use) of 0.07 µM and an IC50 (hNav1.3; Use) of 0.04 µM.
Molecule `CC[C@H](C)[C@@H]1NC(=O)[C@@H]2CSSC[C@@H]3NC(=O)[C@H](C(C)C)NC(=O)[C@H](CC(C)C)NC(=O)[C@H](CC(N)=O)NC(=O)[C@@H]4CCCN4C(=O)[C@H](CCCNC(=N)N)NC(=O)[C@H](CSSC[C@H](NC(=O)[C@@H](N)CC(=O)O)C(=O)N[C@@H](CC(C)C)C(=O)NCC(=O)N[C@@H](C(C)C)C(=O)N[C@@H](CCSC)C(=O)N[C@@H](CCCNC(=N)N)C(=O)N[C@@H](CCCCN)C(=O)N2)NC(=O)[C@H](CSSC[C@@H](C(=O)N[C@@H](CCCCN)C(=O)N[C@@H](Cc2ccc(O)cc2)C(=O)N[C@H](C(=O)N[C@@H](Cc2ccccc2)C(N)=O)C(C)C)NC(=O)[C@H](Cc2c[nH]c4ccccc24)NC(=O)[C@H](CCCCN)NC(=O)[C@H](Cc2c[nH]cn2)NC(=O)[C@H]([C@@H](C)O)NC(=O)[C@H](CCCNC(=N)N)NC(=O)[C@H](CO)NC3=O)NC(=O)[C@H](CCCCN)NC(=O)[C@H](CC(=O)O)NC(=O)[C@H](CC(N)=O)NC(=O)[C@H](CCC(=O)O)NC(=O)[C@@H]2CCCN2C1=O` [compound 711] (H-DCLGVMRKCIPENDKCCRPNLVCSRTHKWCKYVF-NH2; disulfide 2-17, 9-23, 16-30) has an IC50 (hNav1.5; use-dependent protocol, hNav1.5) of 26 µM, an IC50 (hNav1.7; use-dependent protocol, hNav1.7) of 0.48 µM and an IC50 (hNav1.3; use-dependent protocol, hNav1.3) of 0.75 µM.
